Data published in patent publication US10941384B2, “Compositions and methods for promoting the generation of endocrine cells” (President and Fellows of Harvard College, priority 2013, dated 2021).

Legend:
[1] = system: Human NGN3 (HUES 8-pancreatic progenitor population); test: High-content screen 1 and efficacy curve: NGN3+ cells by immunofluorescence (Cellomics); format: cell-based
Protocol: hESC culture and differentiation. Protocol 1. HUES 8 and H1 cells are routinely cultured on irradiated MEF feeder cells in KnockOut DMEM (Invitrogen) supplemented with 10% (v/v) KnockOut serum replacement (Invitrogen), 0.5% (v/v) human plasma fraction (Talecris Biotech), 2 mM L-glutamine (Invitrogen), 1.1 mM 2-mercaptoethanol (Invitrogen), 1 mM nonessential amino acids (Invitrogen), 1× penicillin/streptomycin (PS, Invitrogen) and 10 ng/ml bovine FGF (Invitrogen). Cells are passaged at the ratio of 1:6 every 5 d by using 0.05% trypsin (Invitrogen). To generate the HUES-pancreatic progenitor population, HUES cells were cultured on MEF feeder cells until 80-90% confluent, then treated with 25 ng/ml Wnt3a (R&D systems)+100 ng/ml activin A (R&D systems) in RPMI (Invitrogen) supplemented with 1×L-glutamine and 1×PS for 1 d, and then 100 ng/ml activin A in RPMI supplemented with 1×L-glutamine, 1×PS and 0.2% (v/v) fetal bovine serum (FBS, Invitrogen). The medium was changed 2 d later to 50 ng/ml/FGF7 (R&D systems) in RPMI supplemented with 1×L-glutamine, 1×PS and 2% (v/v) FBS, and maintained for an additional 2 d. Cells were then transferred to 100 ng/ml Noggin (R&D systems)+0.25 μM SANT-1 (Sigma)+2 μM retinoic acid (Sigma) in DMEM supplemented with 1×L-glutamine, 1×PS and 1×B27 (Invitrogen) and cultured for an 4 d, followed by treatment with 100 ng/ml Noggin (R&D systems)+1 μM ALK5 inhibitor (Enzo)+100 nM PDBu (Sigma) in DMEM supplemented with 1×L-glutamine, 1×PS and 1×B27 (Invitrogen) and cultured for an additional 4 d. All HUES-pancreatic progenitor cells were derived using the same protocol as described above. The percentage and number of PDX1^+ cells and NGN3^+ cells were analyzed with the Cellomics high content screening system (Thermo Scientific). PKCβ inhibitor was purchased from Calbiochem.
High-content screen 1. […]
Screen 1: Generation of efficacy curve. […] Six days later, the cells were stained with NGN3 antibody and the plates were analyzed with the Cellomics high content screening system (Thermo Scientific). […]

[2] = system: human c-peptide in serum of SCID-Beige mice; test: Kidney capsule transplantation of treated cells, glucose-stimulated human c-peptide ELISA; format: in vivo; conditions: treated cells under kidney capsule of SCID-beige mice, 12 weeks, 30 mins after glucose
Source text: FIGS. 2A-2B show the characterization of cells derived by PKC inhibitor treatment. […] Cells were stained with insulin, c-peptide, glucagon, UCN3, PDX1 and NKX6-1 antibodies. All insulin-expressing cells express c-peptide. Few insulin-expressing cells express NKX6-1 or UCN3, markers of mature human β cells. Many insulin-expressing cells co-express another endocrine marker glucagon. Scale bars are 100 μm. […] Scheme beginning with cells that have been treated with hit chemicals, e.g., PKC inhibitors, comprises a population containing many NGN3-expressing cells. The HUES 8-derived pancreatic progenitor cells treated with DMSO were used as negative controls. […] 12 weeks later, the mouse sera collected at fasting condition and at 30 mins after glucose stimulation were analyzed using ELISA to measure human c-peptide expression. […]
Kidney capsule implantation and tissue preparation. […] The c-peptide levels in mouse sera were measured using the human c-peptide ELISA kit (Alpco Diagnostics or Millipore).
The inventors next investigated the developmental potential of cell populations enriched for NGN3^+ cells that were induced by PKC inhibition. […] More c-peptide (a byproduct of insulin biosynthesis)-expressing cells were detected in the derivatives of PKCβ inhibitor treated cells (12.5 5.8%) than the derivatives of control cells (DMSO-treated, 1.2 1.2%; FIG. 2b). […]

[3] = system: NGN3 mRNA (HUES 8-derived pancreatic progenitor cells); test: qRT-PCR of NGN3 expression in chemically-treated populations; format: cell-based, human; conditions: quantitative RT-PCR, HUES 8-derived cells
Source text: [drawing 11] was selected for follow up studies due to the high efficacy and low toxicity (FIG. 1C).

pancreatic progenitors = conditions: previously reported, US2011/0070645; cited from earlier work

| Molecule | percentage of NGN3+ cells, fold higher than the DMSO-treated controls ([1]; HUES 8, at maximum) [fold] | EC50 ([1]; Homo sapiens, 144 h, HUES 8-pancreatic progenitor population, six days, FIG. 1D, read-out: EC50, total number of NGN3+ cells) [µM] | toxicity in screen 1 ([1]; reason for selection for follow up) | human c-peptide levels in the serum, glucose injection versus fasting [2] | expression of NGN3 mRNA compared to DMSO controls [3] | generation of pancreatic progenitors (pancreatic progenitors) |
| --- | --- | --- | --- | --- | --- | --- |
| O=C1NC(=O)C(c2cn(CCCn3ccnc3)c3ccccc23)=C1Nc1ccccc1 [PKCβ inhibitor] | ~7 | 7.8 | low toxicity | significantly higher upon glucose injection than during fasting | higher expression of NGN3 mRNA |  |
| (−)-Indolactam V |  |  |  |  |  | promotes the generation of pancreatic progenitors |
